Among the test systems are A498 renal; CCRF-CEM leukemia; HCC-2998 colon; IGROV1 ovarian; LOX IMVI melanoma; M14 melanoma; MDA-MB-231 breast; RXF 393 renal; SF-268 CNS; SK-MEL-5 melanoma; SW-620 colon; UO-31 renal.
Holding throughout (assay): NCI-60 cell line screen, 48 h

Molecules are shown by their SMILES.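 Exposure lasted 48 hours, with cells grown in 96-well plates and compounds tested at five concentrations. TGI: concentration producing complete growth inhibition.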

With `O=C(/C=C/c1ccc(-c2ccccc2)cc1)NCc1ccc(C(=O)NCCc2c[nH]c3ccccc23)cc1`, the TGI in the assay on A498 renal was 80.4 µM; in the assay with CCRF-CEM leukemia, 32.1 µM; in the assay with HCC-2998 colon, over 100 µM; in the assay on IGROV1 ovarian, over 100 µM; with LOX IMVI melanoma, over 100 µM; with M14 melanoma it was over 100 µM. Besides, the TGI in the assay on MDA-MB-231 breast is 42.1 µM; with RXF 393 renal it was over 100 µM; with SF-268 CNS, over 100 µM; with SK-MEL-5 melanoma, over 100 µM; in the assay with SW-620 colon it was over 100 µM; in the assay with UO-31 renal, over 100 µM.

As to `CC(NC1=NCCO1)c1cccc([N+](=O)[O-])c1` (centres undefined), the TGI in the assay on A498 renal, with CCRF-CEM leukemia, in the assay with HCC-2998 colon, in the assay with IGROV1 ovarian, with LOX IMVI melanoma and in the assay on M14 melanoma was over 100 µM in each case. The TGI in the assay on MDA-MB-231 breast, in the assay on RXF 393 renal, with SF-268 CNS, with SK-MEL-5 melanoma, with SW-620 colon and in the assay with UO-31 renal was over 100 µM in each case.

Take `CCCC(CC)c1c(O)c(O)c(C(CC)CCC)c(C(CC)CCC)c1C(CC)CCC` (centres undefined): the TGI in the assay with A498 renal, in the assay with CCRF-CEM leukemia, in the assay with HCC-2998 colon, in the assay with IGROV1 ovarian, in the assay on LOX IMVI melanoma and in the assay with M14 melanoma was over 10 µM each time. In addition, the TGI in the assay with MDA-MB-231 breast, with RXF 393 renal, in the assay on SF-268 CNS, with SK-MEL-5 melanoma, in the assay on SW-620 colon and in the assay with UO-31 renal was over 10 µM throughout.

For `COC(=O)c1ccc(CCc2cc(O)ccc2O)cc1`, the TGI in the assay on A498 renal is over 96.7 µM; in the assay on CCRF-CEM leukemia, over 26.8 µM; in the assay with HCC-2998 colon it was 59.6 µM; in the assay with IGROV1 ovarian, 23.8 µM; in the assay on LOX IMVI melanoma, 22.7 µM; in the assay with M14 melanoma it was 27.8 µM. The TGI in the assay with MDA-MB-231 breast is 29.9 µM; in the assay with RXF 393 renal, 20.9 µM; with SF-268 CNS, over 36.6 µM; in the assay with SK-MEL-5 melanoma, 25.7 µM; in the assay on SW-620 colon, 29.7 µM; in the assay on UO-31 renal it was 7.04 µM.

Turning to `CC(C)[C@H]1NC(=O)[C@H]2N=C(O[C@@H]2C)[C@@H]2CCCN2C(=O)[C@H](Cc2ccccc2)NC(=O)[C@@H]2CSC(=N2)[C@@H](Cc2ccccc2)NC(=O)[C@@H]2CSC1=N2`, the TGI in the assay with A498 renal, in the assay with CCRF-CEM leukemia, in the assay on HCC-2998 colon, in the assay with IGROV1 ovarian, with LOX IMVI melanoma and in the assay on M14 melanoma was over 100 µM in each case. Further, the TGI in the assay on MDA-MB-231 breast, in the assay with RXF 393 renal, with SF-268 CNS, in the assay on SK-MEL-5 melanoma, in the assay on SW-620 colon and in the assay on UO-31 renal was over 100 µM throughout.

Take `NCCNCCCCCCNC(=O)c1cccc2cc3ccccc3nc12`: the TGI in the assay on A498 renal was found to be 9.49 µM; in the assay with CCRF-CEM leukemia, 7.26 µM; with HCC-2998 colon, 6.79 µM; with IGROV1 ovarian, 17.2 µM; in the assay with LOX IMVI melanoma, 2.96 µM; in the assay on M14 melanoma it was 3.6 µM. In addition, the TGI with MDA-MB-231 breast came to 7.13 µM; with RXF 393 renal, 9.68 µM; in the assay with SF-268 CNS, 9.93 µM; in the assay on SK-MEL-5 melanoma, 13.4 µM; with SW-620 colon it was 4.78 µM; with UO-31 renal, 17.2 µM.

Consider `O=C1C=C2CO[C@H]3OC[C@H](O)[C@@H]1[C@@H]23`, for which the TGI in the assay on A498 renal was over 100 µM; in the assay with CCRF-CEM leukemia it was 66.8 µM; in the assay with HCC-2998 colon, over 100 µM; in the assay on IGROV1 ovarian, over 100 µM; in the assay on LOX IMVI melanoma it was over 100 µM; in the assay with M14 melanoma it was over 100 µM. Besides, the TGI in the assay on MDA-MB-231 breast was over 100 µM; in the assay on RXF 393 renal, 42 µM; with SF-268 CNS it was over 100 µM; with SK-MEL-5 melanoma, over 100 µM; with SW-620 colon, over 100 µM; in the assay with UO-31 renal it was over 100 µM.

Regarding `COc1ccc(/C=C2\CC3C4CC=C5C[C@@H](O)CC[C@]5(C)C4CC[C@]3(C)\C2=N\O)cc1OC` (some centres undefined), the TGI is 86.2 µM in the assay on A498 renal; over 100 µM with CCRF-CEM leukemia; over 100 µM in the assay on HCC-2998 colon; over 100 µM in the assay on IGROV1 ovarian; over 100 µM in the assay with LOX IMVI melanoma; over 100 µM with M14 melanoma. Moreover, the TGI was over 100 µM in the assay on MDA-MB-231 breast; over 100 µM in the assay on RXF 393 renal; over 100 µM in the assay on SF-268 CNS; 45.1 µM in the assay with SK-MEL-5 melanoma; over 100 µM with SW-620 colon; 9.97 µM with UO-31 renal.

As for `O=c1[nH]c2cc3cccnc3c(Cl)c2nc1C(F)(F)F`, the TGI in the assay on A498 renal is over 100 µM; with CCRF-CEM leukemia, 98.2 µM; in the assay with HCC-2998 colon, over 100 µM; with IGROV1 ovarian, over 100 µM; in the assay with LOX IMVI melanoma, over 100 µM; in the assay with M14 melanoma it was over 100 µM. Also, the TGI was over 100 µM with MDA-MB-231 breast; over 100 µM in the assay on RXF 393 renal; over 100 µM with SF-268 CNS; 29.8 µM in the assay with SK-MEL-5 melanoma; over 100 µM in the assay on SW-620 colon; over 100 µM in the assay on UO-31 renal.

On to `O=c1[nH]c2ccccc2nc1/C=C(\O)C(F)F`, for which the TGI in the assay with A498 renal, with CCRF-CEM leukemia, with HCC-2998 colon, in the assay with IGROV1 ovarian, in the assay on LOX IMVI melanoma and with M14 melanoma was over 100 µM in each case. The TGI with MDA-MB-231 breast, in the assay with RXF 393 renal, in the assay on SF-268 CNS, in the assay on SK-MEL-5 melanoma, in the assay with SW-620 colon and in the assay on UO-31 renal was over 100 µM in each case.

`COC(=O)/C=C\C(C#N)(C#N)N=Cc1ccc(C)s1`: the TGI was found to be 34.7 µM in the assay with A498 renal; 1.64 µM in the assay on CCRF-CEM leukemia; 32.9 µM in the assay with HCC-2998 colon; 4.94 µM in the assay on IGROV1 ovarian; 3.19 µM in the assay with LOX IMVI melanoma; 3.5 µM with M14 melanoma. Besides, the TGI was determined as 18.3 µM with MDA-MB-231 breast; 3.42 µM in the assay on RXF 393 renal; 19.1 µM in the assay on SF-268 CNS; 19.7 µM in the assay on SK-MEL-5 melanoma; 2.14 µM with SW-620 colon; 3.53 µM in the assay with UO-31 renal.

Turning to `c1cc(C[S+]2CCCC2)ccc1C[S+]1CCCC1`, the TGI in the assay with A498 renal, with CCRF-CEM leukemia, in the assay on HCC-2998 colon, with IGROV1 ovarian, in the assay with LOX IMVI melanoma and in the assay on M14 melanoma was over 100 µM each time. For the same compound, the TGI in the assay on MDA-MB-231 breast, in the assay with RXF 393 renal, with SF-268 CNS, in the assay with SK-MEL-5 melanoma, with SW-620 colon and with UO-31 renal was over 100 µM throughout.

The values above are taken from PubChem BioAssay (NCI).
